From ChEMBL document CHEMBL5137027, “Discovery of quinazoline derivatives CZw-124 as a pan-TRK inhibitor with potent anticancer effects in vitro and in vivo” (Eur J Med Chem, 2022)

What was measured:
[1] = target: High affinity nerve growth factor receptor (Homo sapiens, UniProt P04629); experiment: Inhibition of […] human TRKA (436 to 790 residues) expressed in baculovirus expression system using TK as substrate measured after 30 mins in presence of ATP by HTRF assay
[2] = Metabolic stability in human liver microsomes assessed as compound remaining at 100 uM incubated for 60 mins under shaking condition in absence of NADPH by LC-MS/MS analysis; assay type: ADME, Microsome; conditions: read-out: Stability
[3] = Metabolic stability in human liver microsomes assessed as compound remaining at 100 uM incubated for 60 mins under shaking condition in presence of NADPH by LC-MS/MS analysis; assay type: ADME, Microsome; conditions: read-out: Stability
[4] = Metabolic stability in human microsomes assessed as intrinsic clearance at 100 uM incubated for 60 mins under shaking condition in presence of NADPH by LC-MS/MS analysis; assay type: ADME, Microsome; conditions: read-out: CLH
[5] = Metabolic stability in human liver microsomes assessed as half life at 100 uM incubated for 60 mins under shaking condition in presence of NADPH by LC-MS/MS analysis; assay type: ADME, Microsome
BaF3 [6] = experiment: Antiproliferative activity against mouse BaF3 cells harboring TRKA G595R mutant assessed as inhibition of cell growth incubated for 72 hrs by CCK8 assay; assay type: functional, cell-based; conditions: BaF3, 72 h
KM12 [7] = experiment: Antiproliferative activity against human KM12 cells assessed as inhibition of cell growth incubated for 72 hrs by CCK8 assay; assay type: functional, cell-based; conditions: KM12, 72 h
BaF3 [8] = experiment: Antiproliferative activity against mouse BaF3 cells harboring TRKA F589L mutant assessed as inhibition of cell growth incubated for 72 hrs by CCK8 assay; assay type: functional, cell-based; conditions: BaF3, 72 h
BaF3 [9] = experiment: Antiproliferative activity against mouse BaF3 cells harboring TRKA G667C mutant assessed as inhibition of cell growth incubated for 72 hrs by CCK8 assay; assay type: functional, cell-based; conditions: BaF3, 72 h
THLE-2 = experiment: Antiproliferative activity against human THLE-2 cells assessed as inhibition of cell growth incubated for 72 hrs by CCK8 assay; assay type: functional, cell-based; conditions: THLE-2, 72 h
A549 = experiment: Antiproliferative activity against human A549 cells assessed as inhibition of cell growth incubated for 72 hrs by CCK8 assay; assay type: functional, cell-based; conditions: A549, 72 h
[10] = Toxicity in nude BALB/c mouse xenografted with human KM12 cells assessed as changes in body weight at 40 mg/kg, po qd measured every 3 days for 14 days; assay type: organism-based; conditions: in vivo, 336 h, time 14 day
MCF7 = experiment: Antiproliferative activity against human MCF7 cells assessed as inhibition of cell growth incubated for 72 hrs by CCK8 assay; assay type: functional, cell-based; conditions: MCF7, 72 h
KM12 [11] = experiment: Antitumor activity against human KM12 cells xenografted in nude BALB/c mouse assessed as tumor growth inhibition at 40 mg/kg, po qd measured every 3 days for 14 days; assay type: functional; conditions: KM12, 336 h, time 14 day, read-out: TGI
[12] = target: High affinity nerve growth factor receptor (Homo sapiens, UniProt P04629, G595R); experiment: Inhibition of TRKA G595R mutant (unknown origin)
Sequence of High affinity nerve growth factor receptor (Homo sapiens, UniProt P04629, G595R) (P04629 33-796 G595R limits assumed): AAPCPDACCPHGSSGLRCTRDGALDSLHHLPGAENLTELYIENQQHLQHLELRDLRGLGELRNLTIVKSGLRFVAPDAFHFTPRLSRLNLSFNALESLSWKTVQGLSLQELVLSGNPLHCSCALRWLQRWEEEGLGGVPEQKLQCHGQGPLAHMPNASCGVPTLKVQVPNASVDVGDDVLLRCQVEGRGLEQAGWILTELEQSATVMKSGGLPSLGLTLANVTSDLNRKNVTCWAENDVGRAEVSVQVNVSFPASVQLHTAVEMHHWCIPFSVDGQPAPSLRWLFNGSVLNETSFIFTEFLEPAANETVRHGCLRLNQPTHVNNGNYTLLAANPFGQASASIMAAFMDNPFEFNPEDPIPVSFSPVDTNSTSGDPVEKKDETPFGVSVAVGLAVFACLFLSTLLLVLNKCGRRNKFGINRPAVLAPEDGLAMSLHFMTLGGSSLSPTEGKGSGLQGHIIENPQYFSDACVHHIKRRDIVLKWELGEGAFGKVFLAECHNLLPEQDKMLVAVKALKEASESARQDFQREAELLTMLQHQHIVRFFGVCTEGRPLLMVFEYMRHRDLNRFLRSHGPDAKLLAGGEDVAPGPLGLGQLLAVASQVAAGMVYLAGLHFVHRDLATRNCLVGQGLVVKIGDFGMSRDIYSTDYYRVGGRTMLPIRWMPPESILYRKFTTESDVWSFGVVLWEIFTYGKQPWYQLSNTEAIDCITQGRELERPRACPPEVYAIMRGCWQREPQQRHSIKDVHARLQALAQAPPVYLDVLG

Sequence of High affinity nerve growth factor receptor (Homo sapiens, UniProt P04629) (P04629 whole entry, the tested form may be a part): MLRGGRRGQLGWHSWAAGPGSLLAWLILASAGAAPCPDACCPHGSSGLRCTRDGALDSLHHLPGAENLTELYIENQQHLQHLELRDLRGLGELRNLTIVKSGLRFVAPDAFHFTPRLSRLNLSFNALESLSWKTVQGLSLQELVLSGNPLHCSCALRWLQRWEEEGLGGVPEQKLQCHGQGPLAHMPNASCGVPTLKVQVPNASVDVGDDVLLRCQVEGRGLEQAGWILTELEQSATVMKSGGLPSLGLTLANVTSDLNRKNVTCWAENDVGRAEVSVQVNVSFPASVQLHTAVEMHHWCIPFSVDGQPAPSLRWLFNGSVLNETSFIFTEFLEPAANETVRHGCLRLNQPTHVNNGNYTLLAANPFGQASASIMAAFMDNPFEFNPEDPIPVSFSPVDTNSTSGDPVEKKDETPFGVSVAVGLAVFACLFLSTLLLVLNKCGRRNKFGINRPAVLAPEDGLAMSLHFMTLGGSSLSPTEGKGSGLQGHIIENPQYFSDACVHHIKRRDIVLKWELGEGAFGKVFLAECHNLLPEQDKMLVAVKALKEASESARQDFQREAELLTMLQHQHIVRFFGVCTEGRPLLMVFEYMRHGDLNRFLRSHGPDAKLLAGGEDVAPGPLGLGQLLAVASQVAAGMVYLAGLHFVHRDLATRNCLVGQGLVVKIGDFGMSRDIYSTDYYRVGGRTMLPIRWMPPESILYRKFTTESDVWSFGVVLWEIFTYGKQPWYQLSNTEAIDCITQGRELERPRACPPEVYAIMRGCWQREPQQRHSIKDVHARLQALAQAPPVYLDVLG

Q: Which IC50 [1] does the source give for `Cc1cc(Nc2nc(NCc3ccc(C(F)(F)F)cc3)nc3ccccc23)n[nH]1` here?
A: Its IC50 is 1400 nM.

Q: For `Cc1ccc2c(Nc3cc(C)[nH]n3)nc(NCc3ccc(F)cc3F)nc2c1`, which remaining at 1 h, 100 µM [2] is on record?
A: The remaining at 1 h, 100 µM was 98.1%.

Q: And the remaining at 1 h, 100 µM [3]?
A: Its remaining at 1 h, 100 µM is 20.2%.

Q: And the microsomal CLint at 100 µM [4]?
A: The microsomal CLint at 100 µM was 54.3 µL/min/mg.

Q: What about the half-life at 100 µM [5] of the same molecule?
A: Its half-life at 100 µM is 25.5 min.

Q: For `Cc1cc(Nc2nc(NCc3ccc(F)cc3F)nc3ccc(F)cc23)n[nH]1`, which IC50 [1] is on record?
A: Its IC50 is 44 nM.

Q: With `C[C@@H]1CCc2ncc(F)cc2[C@H]2CCCN2c2ccn3ncc(c3n2)C(=O)N1` [SELITRECTINIB] as the molecule, how does the IC50 (BaF3 [6]) read?
A: The IC50 was 18 nM.

Q: And the IC50 (KM12 [7])?
A: Its IC50 is 2.8 nM.

Q: What about the IC50 (BaF3 [8]) of the same molecule?
A: The IC50 was 8.2 nM.

Q: For `Cc1cc(Nc2nc(NCc3ccc(F)cc3F)nc3cc(C(F)(F)F)ccc23)n[nH]1`, which remaining at 1 h, 100 µM [2] is on record?
A: Its remaining at 1 h, 100 µM is 98.3%.

Q: And the remaining at 1 h, 100 µM [3]?
A: Its remaining at 1 h, 100 µM is 43.4%.

Q: And the microsomal CLint at 100 µM [4]?
A: Its microsomal CLint at 100 µM is 27.2 µL/min/mg.

Q: And the IC50 [1]?
A: The IC50 was 57 nM.

Q: And the half-life at 100 µM [5]?
A: Its half-life at 100 µM is 50.9 min.

Q: For `Fc1ccc(CNc2nc(Nc3cc(C4CC4)[nH]n3)c3ccccc3n2)c(F)c1`, which remaining at 1 h, 100 µM [2] is on record?
A: Its remaining at 1 h, 100 µM is 104%.

Q: And the remaining at 1 h, 100 µM [3]?
A: The remaining at 1 h, 100 µM was 19.3%.

Q: And the microsomal CLint at 100 µM [4]?
A: Its microsomal CLint at 100 µM is 53.7 µL/min/mg.

Q: What about the IC50 [1] of the same molecule?
A: Its IC50 is 4.7 nM.

Q: What about the half-life at 100 µM [5] of the same molecule?
A: Its half-life at 100 µM is 25.8 min.

Q: Which IC50 [1] does the source give for `Cc1ccc(CNc2nc(Nc3cc(C)[nH]n3)c3ccccc3n2)cc1` here?
A: The IC50 was 110 nM.

Q: With `O=C(Nc1cnn2ccc(N3CCC[C@H]3c3cc(F)ccc3F)nc12)N1CC[C@@H](O)C1` as the molecule, how does the IC50 (BaF3 [9]) read?
A: Its IC50 is 850 nM.

Q: And the IC50 (THLE-2)?
A: The IC50 was greater than 100000 nM.

Q: What about the IC50 (BaF3 [6]) of the same molecule?
A: The IC50 was 2200 nM.

Q: What about the IC50 (A549) of the same molecule?
A: Its IC50 is greater than 100000 nM.

Q: What about the Activity [10] of the same molecule?
A: The Activity was “Non-Toxic”.

Q: What about the IC50 (KM12 [7]) of the same molecule?
A: The IC50 was 7.1 nM.

Q: And the IC50 (MCF7)?
A: The IC50 was greater than 100000 nM.

Q: And the IC50 (BaF3 [8])?
A: Its IC50 is 260 nM.

Q: And the inhibition in vivo at 40 mg/kg (KM12 [11])?
A: Its inhibition in vivo at 40 mg/kg is 78%.

Q: With `Cc1cc(Nc2nc(NCc3ccc(F)cc3F)nc3cc(Cl)ccc23)n[nH]1` as the molecule, how does the remaining at 1 h, 100 µM [2] read?
A: Its remaining at 1 h, 100 µM is 99.5%.

Q: What about the remaining at 1 h, 100 µM [3] of the same molecule?
A: Its remaining at 1 h, 100 µM is 28.1%.

Q: What about the microsomal CLint at 100 µM [4] of the same molecule?
A: Its microsomal CLint at 100 µM is 43.5 µL/min/mg.

Q: And the half-life at 100 µM [5]?
A: Its half-life at 100 µM is 31.9 min.

Q: With `Cc1cc(C(=O)NC(C)(C)C)cc(C#Cc2ccc3c4c(oc3c2)C(C)(C)c2cc(NS(C)(=O)=O)ccc2C4=O)n1` as the molecule, how does the IC50 [12] read?
A: The IC50 was 3000 nM.

Q: Which IC50 [1] does the source give for `Fc1ccc(CNc2nc(Nc3cc(C4CC4)[nH]n3)c3ccc(Br)cc3n2)c(F)c1` here?
A: Its IC50 is 150 nM.

Q: Which IC50 [1] does the source give for `Cc1cc(Nc2nc(NCc3ccc(F)cc3)nc3ccccc23)n[nH]1` here?
A: Its IC50 is 20 nM.

Q: Which IC50 [1] does the source give for `Cc1cc(Nc2nc(NCc3cc(F)ccc3F)nc3ccccc23)n[nH]1` here?
A: Its IC50 is 7.5 nM.

Q: For `Fc1ccc(CNc2nc(Nc3cc(-c4ccccc4)[nH]n3)c3ccccc3n2)c(F)c1`, which IC50 [1] is on record?
A: Its IC50 is 68 nM.

Q: With `Cc1cc(Nc2nc(NCc3ccc(Br)cc3)nc3ccccc23)n[nH]1` as the molecule, how does the IC50 [1] read?
A: The IC50 was 180 nM.

Q: What does the source list for `Fc1ccc(CNc2nc(Nc3cc(C4CC4)[nH]n3)c3ccc(C(F)(F)F)cc3n2)c(F)c1`?
A: IC50 (THLE-2): > 100000 nM; IC50 (BaF3 [6]): 1100 nM; IC50 [1]: 17 nM; IC50 (A549): 19000 nM; IC50 (KM12 [7]): 28 nM; IC50 (MCF7): 9100 nM

Q: Which IC50 (BaF3 [9]) does the source give for `CC(C)Oc1cc(Nc2nc(N[C@@H](C)c3ccc(F)cn3)ncc2Cl)n[nH]1` here?
A: The IC50 was 130 nM.

Q: What about the IC50 (BaF3 [6]) of the same molecule?
A: The IC50 was 59 nM.

Q: What about the IC50 (KM12 [7]) of the same molecule?
A: Its IC50 is 21 nM.

Q: And the IC50 (BaF3 [8])?
A: Its IC50 is 20 nM.

Q: For `Cc1cc(Nc2nc(N3CCOCC3)nc3ccc(Cl)cc23)n[nH]1`, which IC50 [1] is on record?
A: The IC50 was 350 nM.

Q: For `Cc1cc(Nc2nc(NCc3ccc(Cl)cc3)nc3ccccc23)n[nH]1`, which IC50 [1] is on record?
A: The IC50 was 380 nM.

Q: With `Cc1cc(Nc2nc(NCc3c(F)cccc3F)nc3ccccc23)n[nH]1` as the molecule, how does the IC50 [1] read?
A: Its IC50 is 160 nM.
